Data published in US20240279232A1, “USE OF SUBSTITUTED 5-(4-METHYL-6-PHENYL-4H-BENZO[F]IMIDAZO[1,5-A][1,4] DIAZEPIN-3-YL)-1,2,4-O[…] THE TREATMENT OF INFLAMMATORY CONDITIONS” (priority 2021, published 2024).
Like-named read-outs stand apart in the source and are kept apart here.

Tests used:
KOR (κ opioid receptor) = target: T1, KOR (κ opioid receptor) (Homo sapiens, UniProt P41145); assay: KOR radioligand binding ([3H]-U69593, HEK293 cell homogenates); settings: for inhibition at 10 µM: Percent inhibition at 10,000 nM
T1 construct: expressed in transfected cells; host or cells: HEK293 (stably transfected)
Procedure: (§1) Radioligand binding assays. Detailed protocols for the primary and secondary radioligand binding assays can be found in the National Institute of Mental Health's Psychoactive Drug Screening Program (NIMH PDSP) Assay Protocol Book (Roth, 2018). Briefly, primary and secondary radioligand binding assays are carried out in a final of volume of 125 μL per well in appropriate binding buffer. […] Total binding and nonspecific binding are determined in the absence and presence of 10 μM of appropriate reference compound (Naltrindole DOR, Salvinorin A KOR and DAMGO MOR). In brief, plates are usually incubated at room temperature and in the dark for 90 min. Reactions are stopped by vacuum filtration onto 0.3% polyethyleneimine (PEI) soaked 96-well filter mats using a 96-well Filtermate harvester, followed by three washes with cold PBS buffer. Scintillation cocktail is then melted onto the microwave-dried filters on a hot plate and radioactivity counted in a Microbeta counter. The data (n=6) were analyzed by nonlinear regression.
(§2) Ligand affinities were determined for KOR (κ opioid receptor), DOR (δ opioid receptor), and MOR (μ opioid receptor) using radioligand binding assays at a screening concentration of 10,000 nM. For these assays, cell homogenates from HEK293 cells that overexpressed KOR, MOR, and DOR were used in combination with [^3H]-U69593, [^3H]-DAMGO, and [^3H]-DADLE, respectively Compounds that exceeded more than 50% radioligand displacement were investigated further in concentration-dependent experiments to determine Ki values. Gamma aminobutyric acid type A receptor (GABAAR) binding was determined with rat brain homogenate and ^3H-flunitrazepam. Flunitrazepam binds GABAAR subtypes that consists of two α and two β subunits and one γ or δ subunit. Strong affinities to α1-3,5,6β1-3γ1-y/δ GABAARS have been reported for flunitrazepam. The […] GABAAR subtype expression in the brain includes 43% α1β2γ2, 15% α2β3γ2+8% α2βγ1, 10% α3β3γ2, 6% α4βγ/δ, 4% α5β3γ2, and 4% α6β2γ2/δ. Therefore, compounds with high affinity toward the synaptic benzodiazepine-sensitive receptors (BZR) predominately bind α1-3β2-3γ1-2 GABAARs. Alternatively, compounds with weak BZR binding might be selective for α4-6βγ/δ GABAARs.
(§3) Psychoactive Drug Screening Program. Detailed protocols for the primary and secondary radioligand binding assays can be found in the National Institute of Mental Health's Psychoactive Drug Screening Program (NIMH PDSP) Assay Protocol Book. Briefly, primary and secondary radioligand binding assays are carried out in a final of volume of 125 μL per well in appropriate binding buffer. The radioactive ligand concentration is close to the Kd. Total binding and nonspecific binding are determined in the absence and presence of 10 μM of appropriate reference compound, respectively. In brief, plates are usually incubated at room temperature and in the dark for 90 min. Reactions are stopped by vacuum filtration onto 0.3% polyethyleneimine (PEI) soaked 96-well filter mats using a 96-well Filtermate harvester, followed by three washes with cold PBS buffer. Scintillation cocktail is then melted onto the microwave-dried filters on a hot plate and radioactivity counted in a Microbeta counter. The data (n=6) were analyzed by nonlinear regression.

MOR (μ opioid receptor) = target: T2, MOR (μ opioid receptor) (Homo sapiens, UniProt P35372); assay: MOR radioligand binding ([3H]-DAMGO, HEK293 cell homogenates); settings: Percent inhibition at 10,000 nM; [3H]-DAMGO
T2 construct: expressed in transfected cells; host or cells: HEK293
Procedure: as §1, §2, §3

DOR (δ opioid receptor) = target: T3, DOR (δ opioid receptor) (Homo sapiens, UniProt P41143); assay: DOR radioligand binding ([3H]-DADLE, HEK293 cell homogenates); settings: Percent inhibition at 10,000 nM; [3H]-DADLE
T3 construct: expressed in transfected cells; host or cells: HEK293
Procedure: as §1, §2, §3

[1] = test system: BZR (benzodiazepine site of GABAAR); assay: GABAAR/BZR binding, rat brain homogenate with 3H-flunitrazepam; settings: rat brain homogenate, 3H-flunitrazepam; for BZR %: Percent inhibition at 10,000 nM
Procedure: as §2, §3

Mouse microglia = assay: NO production (Griess assay), LPS/IFNγ-activated mouse microglia; format: cell-based; settings: with 50 μM MP-IV-010; flumazenil 50 μM, picrotoxin 50 μM, bicuculline 100 μM, SM-21 30 μM, norbinaltorphimine 30 μM
Procedure: Next, a library of GABAAR ligands was investigated to identify compounds that reduce the production of NO as a marker of anti-inflammatory activity. […] NO was quantified with a Greiss assay. Cell viability was determined with CellTiter-Glo.
Cell culture. A) HMC3 Microglia (CRL-3304) were maintained in treated cell culture flasks (Nunc, 156472) with EMEM (Corning, 10010CV) supplemented with 10% heat-inactivated FBS (Corning, 35011CV) and 100 U/mL penicillin and 100 μg/mL streptomycin (Hyclone, SV30010). Cultures were maintained at 37° C. and 5% CO2. When cells reached a density of 7×10^4 cells/mL, cultures were passaged with 0.25% Trypsin (Corning, 25-053-CI) and resuspended to a density no lower than 10,000 cells/mL. B) Human and mouse microglia cell lines were a gift from Dr. David Alvarez-Carbonell at Case Western Reserve University (Cleveland, OH). Microglia were cultured in cell culture treated flasks (Nunc, 156472) with DME/F12 media (Hyclone, SH30023.01) supplemented with 10% heat-inactivated FBS (Corning, 35011CV), 100 U/mL penicillin/100 μg/mL streptomycin (Hyclone, SV30010), and Normocin (Invivogen, ant-nr). Cultures were maintained at 37° C. and 5% CO2. […] Cultures were maintained at 37° C. and 5% CO2. Cells were passaged when they reached a density of approximately 3×10^6 cells/mL using cell scrapers (VWR, 10062-906) to lift cells from flask surface and resuspended at densities of approximately 500,000 cells/mL.
Nitric oxide production (Griess assay) and viability assay (CellTiter-Glo). 80 μL of mouse microglia culture (1×10^6 cells/mL) was plated into sterile 384 well plates representing non-activated wells. The remaining culture was activated with 50 ng/ml LPS (Invivogen, NC9836) and 150 U/mL IFNγ (R&D Systems, 485MI100) and distributed into the 384 well plates. […] Assay plates were incubated for approximately 24 hours (unless otherwise noted) at 37° C., centrifuged, and 40 μL of supernatant transferred to a new plate for analysis using the Griess Assay (Promega, Madison, WI). Absorbance at 530 nm was measured using a TECAN Infinite M1000 plate reader. The remaining 40 μL containing cells was analyzed for toxicity by the CellTiter-Glo Assay (Promega, Madison, WI). Luminescence was read using a TECAN Infinite M1000 plate reader.

[2] = concentration-dependent, [3H]-U69593, read-out: KOR (Ki)

T2 sequence (P35372 whole entry, species assumed): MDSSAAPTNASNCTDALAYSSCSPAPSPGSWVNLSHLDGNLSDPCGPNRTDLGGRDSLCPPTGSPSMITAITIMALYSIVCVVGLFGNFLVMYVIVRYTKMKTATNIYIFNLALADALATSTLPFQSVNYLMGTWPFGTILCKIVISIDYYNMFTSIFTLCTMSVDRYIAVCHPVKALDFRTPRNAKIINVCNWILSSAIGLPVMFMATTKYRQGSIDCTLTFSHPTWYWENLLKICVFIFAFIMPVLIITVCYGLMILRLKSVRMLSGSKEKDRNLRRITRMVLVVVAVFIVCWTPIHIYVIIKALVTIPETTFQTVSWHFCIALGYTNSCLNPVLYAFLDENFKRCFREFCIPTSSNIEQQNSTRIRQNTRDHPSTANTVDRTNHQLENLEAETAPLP
T3 sequence (P41143 whole entry): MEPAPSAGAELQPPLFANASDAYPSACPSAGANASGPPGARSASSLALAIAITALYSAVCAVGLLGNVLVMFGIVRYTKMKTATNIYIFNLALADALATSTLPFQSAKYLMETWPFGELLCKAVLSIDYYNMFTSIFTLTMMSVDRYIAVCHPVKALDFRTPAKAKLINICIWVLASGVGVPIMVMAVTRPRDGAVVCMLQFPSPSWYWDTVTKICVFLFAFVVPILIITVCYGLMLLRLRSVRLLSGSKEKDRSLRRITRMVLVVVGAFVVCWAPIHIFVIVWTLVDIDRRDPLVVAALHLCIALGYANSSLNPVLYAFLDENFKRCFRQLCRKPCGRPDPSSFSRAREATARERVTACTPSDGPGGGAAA
T1 sequence (P41145 whole entry): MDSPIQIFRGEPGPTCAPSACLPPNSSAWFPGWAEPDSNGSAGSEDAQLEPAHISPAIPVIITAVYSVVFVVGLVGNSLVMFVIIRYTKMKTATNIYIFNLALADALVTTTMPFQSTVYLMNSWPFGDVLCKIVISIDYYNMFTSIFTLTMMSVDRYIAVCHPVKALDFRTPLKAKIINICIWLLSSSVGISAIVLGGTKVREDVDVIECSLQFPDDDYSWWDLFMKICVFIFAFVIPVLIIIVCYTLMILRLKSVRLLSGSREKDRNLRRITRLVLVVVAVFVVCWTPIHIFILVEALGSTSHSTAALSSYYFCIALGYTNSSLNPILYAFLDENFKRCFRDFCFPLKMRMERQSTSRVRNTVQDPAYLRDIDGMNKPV

Molecule | inhibition at 10 µM (KOR (κ opioid receptor); [3H]-U69593) [%] | inhibition at 10 µM (MOR (μ opioid receptor)) [%] | inhibition at 10 µM (DOR (δ opioid receptor)) [%] | BZR % [1] [%] | Ki [1] [nM] | Ki (KOR (κ opioid receptor); [2]) [nM] | Ki (KOR (κ opioid receptor)) [nM] | KOR affinity (in words) (KOR (κ opioid receptor); radioligand binding) | reversal of the NO reduction by MP-IV-010 (in words) (Mouse microglia)
C#Cc1ccc2c(c1)C(c1ccccn1)=NCc1c(C(=O)OC)ncn1-2 [MP-III-024] | 43 | 0 | 24 | 81 | 277 | – | – | – | –
C#Cc1ccc2c(c1)C(c1ccccc1F)=N[C@H](C)c1c(C(=O)OCC)ncn1-2 [SH-053-2′F-R-CH3] | 89 | 28 | 32 | 85 | 379 | 240 | – | – | –
CCOC(=O)c1ncn2c1[C@H](C)N=C(c1ccccc1F)c1cc(Br)ccc1-2 [SH-I-048B] | 95 | 0 | 0 | 61 | 96 | – | 63 | – | –
Brc1ccc2c(c1)C(c1ccccc1)=NCc1c(-c3cnco3)ncn1-2 [KRM-II-73] | 83 | 11 | 32 | 97 | 45 | 736 | – | – | –
C[C@H]1N=C(c2ccccc2F)c2cc(Br)ccc2-n2cnc(C(=O)O)c21 [GL-II-93] | 0 | 0 | 0 | 73 | 86 | – | – | No KOR affinity was observed | –
C#Cc1ccc2c(c1)C(c1ccccc1F)=N[C@@H](C)c1c(C(=O)OC)ncn1-2 [MP-III-021] | 93 | 0 | 22 | 88 | 219 | 122 | – | – | –
C#Cc1ccc2c(c1)C(c1ccccn1)=NCc1c(C(=O)OC(C)C)ncn1-2 [MP-II-068] | 85 | 0 | 34 | 97 | 42 | 550 | – | – | –
Oc1ccc2c3c1O[C@H]1c4[nH]c5c(c4C[C@@]4(O)[C@@H](C2)N(CC2CC2)CC[C@]314)C[C@@]1(O)[C@H]2Cc3ccc(O)c4c3[C@@]1(CCN2CC1CC1)[C@H]5O4 [norbinaltorphimine, reference compound] | – | – | – | – | – | – | – | – | reversed the effects of MP-IV-010
C#Cc1ccc2c(c1)C(c1ccccc1F)=N[C@@H](C)c1c(C(=O)OC3CC3)ncn1-2 [GL-I-38] | 95 | 18 | 16 | 96 | 127 | 68 | – | – | –
C#Cc1ccc2c(c1)C(c1ccccc1F)=N[C@@H](C)c1c(C(=O)NC(C)(C)C)ncn1-2 [GL-I-41] | 97 | 40 | 10 | 90 | 140 | 39 | – | – | –
C#Cc1ccc2c(c1)C(c1ccccc1F)=N[C@H](C)c1c(C(=O)OC)ncn1-2 [MP-III-004] | 76 | 0 | 24 | 78 | 445 | 599 | – | – | –
C#Cc1ccc2c(c1)C(c1ccccc1F)=N[C@H](C)c1c(C(=O)NCC)ncn1-2 [GL-II-74] | 86 | 10 | 0 | 84 | 68 | 194 | – | – | –
C#Cc1ccc2c(c1)C(c1ccccc1F)=N[C@H](C)c1c(C(=O)NC3CC3)ncn1-2 [GL-II-75] | 81 | 0 | 3 | 85 | 93 | 278 | – | – | –
C#Cc1ccc2c(c1)C(c1ccccc1F)=N[C@H](C)c1c(C(=O)N(C)C)ncn1-2 [GL-II-73] | 58 | 6 | 0 | 75 | 506 | 1190 | – | – | –
C#Cc1ccc2c(c1)C(c1ccccc1F)=N[C@@H](C)c1c(C(=O)NC)ncn1-2 [MP-II-023] | 91 | 0 | 16 | 97 | 37 | 119 | – | – | –
C#Cc1ccc2c(c1)C(c1ccccn1)=NCc1c(C(=O)O)ncn1-2 [SR-II-54] | 9 | 8 | 1 | 80 | 69 | – | – | – | –
CCC(Oc1ccc(Cl)cc1)C(=O)OC1CC2CCC(C1)N2C (stereo not shown) [SM-21, reference compound] | – | – | – | – | – | – | – | – | no reversal
CCOC(=O)c1ncn2c1CN(C)C(=O)c1cc(F)ccc1-2 [flumazenil, Flumazenil, reference compound] | – | – | – | – | – | – | – | – | did not reverse
C#Cc1ccc2c(c1)C(c1ccccc1F)=N[C@H](C)c1c(C(N)=O)ncn1-2 [MP-III-019.B] | 62 | 2 | 0 | 94 | 54 | 1530 | – | – | –
C#Cc1ccc2c(c1)C(c1ccccc1F)=N[C@H](C)c1c(C(=O)N3CCCC3)ncn1-2 [GL-II-76] | 80 | 0 | 0 | 43 | – | 371 | – | – | –
C#Cc1ccc2c(c1)C(c1ccccn1)=NCc1c(-c3ocnc3C)ncn1-2 [KRM-III-79] | 9 | 32 | 1 | 81 | 308 | – | – | – | –
picrotoxin [reference compound] | – | – | – | – | – | – | – | – | did not reverse
C#Cc1ccc2c(c1)C(c1ccccn1)=NCc1c(C(=O)OCC)ncn1-2 [Hz-166] | 60 | 6 | 49 | – | – | 3820 | – | – | –
